“And” between values parts separate entries of the source, which are not always exact repeats. Identical values can stand only once.
Tests used:
Assay type in all cases: in vivo
[1] = system: rabbit endometrial transformation; assay: Rabbit endometrial transformation (Clauberg) assay; conditions: for ED50: Oryctolagus cuniculus, 120 h, read-out: Rabbit Clauberg Assay estimated ED50 (AED50)
Procedure: In addition to the rat progestational models described above, NSP-989 was also evaluated in the Clauberg model, a classic progestational assay in the rabbit endometrial transformation model [McPhail MK, “The assay of progestin.” J Physiol. 1934; 83:145-1567]. Briefly, immature female New Zealand White rabbits (˜1 kg body weight) were injected subcutaneously with 5 μg 17β-estradiol (E2)/rabbit/day for six consecutive days. Beginning 24 hours after the final E2 injection, vehicle alone or test compounds were given orally for (5) five consecutive days. Progestational activity was determined by increases in uterine weight and endometrial glandular arborization (McPhail Index).

[2] = system: estrogen-induced C3 expression in the uterine epithelium; assay: Adult ovariectomized rat uterine C3 model; conditions: po, once daily for 2 days, with EE 0.08 mg/kg on day 2; for ED50: Rattus norvegicus, 48 h
Procedure: The third model for PR agonist activity was the adult ovariectomized rat uterine C3 model. This assay evaluates the ability of a progestin to block estrogen-induced C3 expression in the uterine epithelium.
Ovariectomized female, 60 day-old Sprague-Dawley rats were obtained from Harlan (Indianapolis, Ind.). Ovariectomies were performed by the supplier a minimum of 8 days prior tobefore treatment. The rats were randomized and placed in groups of 6. The animals were treated once daily for (2) two days orally by gavage (p.o.) in a volume of 0.5 mL. On the second day of treatment, the animals were also treated with EE (0.08 mg/kg body weight (BW)) orally by gavage. Approximately 24 hours after the final treatment, the animals were euthanized by CO2 asphyxiation. The uteri were then removed, stripped of remaining fat and mesentery, weighed, and snap-frozen on dry ice. Total RNA was isolated from the uteri using the Trizol Reagent (GibcoBRL) as described by the manufacturer. Real-time reverse transcription polymerase chain reaction (RT-PCR) as previously reported [Sampath D, et al., “Aberrant expression of Cyr61, a member of the CCN (CTGF/Cyr61/Cef10/NOVH) family, and dysregulation by 17b-estradiol and basic fibroblast growth factor in human uterine leiomyomas” J Clin Endocrinol Metab. 2001; 86:1707-1715] was used to quantitate complement C3 expression. Briefly, RNA samples were DNAse-I treated using a DNA-free kit (Ambion). A total of 50 ng of RNA was analyzed in triplicate using C3 specific primer pair (5′primer […] [SEQ ID NO: 1], 3]primer […] [SEQ ID NO: 2]) and customized probe (6FAM-[…]-TAMRA [SEQ ID NO: 3]). C3 messenger RNA (mRNA) levels were normalized to 18s 18S ribosomal RNA contained within each sample reaction using primers and probe supplied by PE Applied Biosystems.

progesterone receptor = biological target: T1, progesterone receptor (Rattus norvegicus, UniProt Q63449); assay: Rat uterine decidualization assay in adult ovariectomized rats; conditions: for ED50: rat, read-out: Rat Decidual Assay ED50
T1 construct: the uterine decidualization assay in adult ovariectomized rats; from tissue; host or cells: uterus of live ovariectomized Sprague-Dawley rats (in vivo)
T1 sequence (Q63449 1-923): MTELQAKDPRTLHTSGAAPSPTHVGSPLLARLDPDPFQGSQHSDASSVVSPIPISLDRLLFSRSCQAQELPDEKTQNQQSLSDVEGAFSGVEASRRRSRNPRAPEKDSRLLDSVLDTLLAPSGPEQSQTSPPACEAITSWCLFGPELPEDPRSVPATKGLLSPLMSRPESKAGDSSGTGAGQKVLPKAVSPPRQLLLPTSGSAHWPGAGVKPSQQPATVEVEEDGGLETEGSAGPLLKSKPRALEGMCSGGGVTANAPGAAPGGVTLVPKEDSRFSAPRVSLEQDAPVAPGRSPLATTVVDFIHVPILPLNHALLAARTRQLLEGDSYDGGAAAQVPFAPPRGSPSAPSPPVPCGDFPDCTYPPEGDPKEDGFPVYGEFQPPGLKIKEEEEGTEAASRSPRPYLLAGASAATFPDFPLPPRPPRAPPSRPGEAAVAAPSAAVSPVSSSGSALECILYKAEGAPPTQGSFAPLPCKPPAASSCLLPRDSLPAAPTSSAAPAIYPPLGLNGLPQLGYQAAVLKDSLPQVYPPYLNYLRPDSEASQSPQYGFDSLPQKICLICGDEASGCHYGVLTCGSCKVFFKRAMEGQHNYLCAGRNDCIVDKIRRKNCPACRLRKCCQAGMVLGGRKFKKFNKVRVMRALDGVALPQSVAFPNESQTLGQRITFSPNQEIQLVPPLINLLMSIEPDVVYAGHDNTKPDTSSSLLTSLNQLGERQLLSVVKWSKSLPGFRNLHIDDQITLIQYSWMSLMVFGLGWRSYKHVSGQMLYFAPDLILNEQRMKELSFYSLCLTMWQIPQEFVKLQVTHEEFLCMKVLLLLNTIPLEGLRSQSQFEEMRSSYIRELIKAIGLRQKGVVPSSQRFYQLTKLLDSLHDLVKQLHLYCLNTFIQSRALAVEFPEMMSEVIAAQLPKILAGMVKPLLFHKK
Procedure: The second rat model to determine progestational activity is the uterine decidualization assay in adult ovariectomized rats.
Briefly, mature female Sprague-Dawley rats (˜220 g) were ovariectomized at least 10 days prior to treatment to reduce circulating sex steroids. […] Approximately 24 hours after the third daily treatment, decidualization was induced in onel uterine horn of each anesthetized rat by scratching the antimesometrial luminal epithelium with a blunt 21-gauge needle. The contralateral horn was not scratched and served as a non-stimulated control. Animals were euthanized by CO2 asphyxiation 24 hoursr following the final treatment. The uteri were removed, and trimmed of fat, and the decidualized (D) and control (C) horns were weighed separately. The decidual response is expressed as D/C.

[3] = system: ovulation in adult female rats; assay: Rat ovulation inhibition assay; conditions: po, once daily for 4 days, Sprague-Dawley rats
Procedure: The ovulation inhibition assay measures a compound's ability to inhibit ovulation in adult female rats. This activity is essential for contraceptive efficacy.
Random cycling mature female Sprague-Dawley rats (˜200 g) were obtained from Charles River Laboratory (Boston, Mass.). Rats were synchronized for estrus with 2 μg of LHRH (in phosphate buffered saline containing 0.1% bovine serum albumin) administered subcutaneously (sc) per rat at 0900 h and again at 1600 h. Animals were allowed to rest for 8 days before the administration of test compounds. Animals were then grouped, with 7 to 9 rats per treatment group. The morning of the ninth day following LHRH treatment, the rats were treated with test compounds once daily, by gavage. This continued for 4 consecutive days. The animals were euthanized the morning following the last treatment. Oviducts were removed, placed between 2 glass slides, and viewed through a dissecting microscope to count ova. The number of animals presenting ova in the oviduct from each treatment group and the number of ova in the oviduct of each animal were recorded.

[4] = po, 5 days, estradiol-primed immature rabbits, limited dose response studies
[5] = po, once daily for 7 days, ovariectomized rats

| ED50 (progesterone receptor; [5]) | Potency in decidualization relative to MPA (fold more potent) (progesterone receptor; versus MPA) | Potency in decidualization relative to TMG (fold more potent) (progesterone receptor; versus TMG) | Rat Decidual Assay ED50 (progesterone receptor; [5]) | Structure (SMILES) | ED50 [1, 4] | Potency in Clauberg assay relative to MPA (fold more potent) ([1]; versus MPA) | ED50 [2] | Rat Ovulation Inhibition Assay ED100 [3] | Rabbit Clauberg Assay estimated ED50 (AED50) [1, 4] | Rat C3 Assay ED50 [2] |
| --- | --- | --- | --- | --- | --- | --- | --- | --- | --- | --- |
| 0.01 mg/kg | approximately 40 fold | ~100 fold | – | Cn1c(C#N)ccc1-c1ccc2c(c1)C(C)(C)OC(=S)N2 [NSP-989, 5-(4,4-Dimethyl-2-thioxo-1,4-dihydro-2H-benzo[d] [1,3]oxazin-6-yl)-1-methyl-1H-pyrrole-2-carbonitrile] | 0.001 mg/kg | about 30 fold | 0.0005 mg/kg | 0.03 mg/kg | – | – |
| – | – | – | 1.0 mg/kg | C[C@H](O)C(=O)[C@@]1(C)CC[C@H]2[C@@H]3CCC4=CC(=O)CCC4=C3CC[C@@]21C [TMG, trimegestone] | – | – | – | 1 mg/kg and 1.0 mg/kg | 0.001 mg/kg | 0.005 mg/kg |
| 0.4 mg/kg | – | – | – | CC(=O)O[C@]1(C(C)=O)CC[C@H]2[C@@H]3C[C@H](C)C4=CC(=O)CC[C@]4(C)[C@H]3CC[C@@]21C [MPA, medroxyprogesterone acetate] | 0.03 mg/kg | – | 0.03 mg/kg | 1 mg/kg and 1.0 mg/kg | – | – |
